Measured values published in US10265333B2, “Lipid nanomaterial containing lysophosphatidylcholine or derivative thereof and method for preparing same” (priority 2013, dated 2019).

How the values were obtained:
[1] = tested on: hair-clipped dorsal back skins of mice; assay: Local irritation test in mice after single subcutaneous administration; format: in vivo; details: for Clinical signs: Normal appearance (% of mice) / Clinical signs: Normal appearance (mice/group) / Clinical signs: Skin ulcerative lesions (mice/group): male ICR mice, 14 days
Experimental: In order to evaluate the local irritation of the LPC-containing lipid nanoparticle formulation (LPC-F; 18:0 LPC concentration: 10 mg/ml) prepared in example 1, 20, 10, and 5 ml/kg (18:0 LPC 200, 100, and 50 mg/kg) were single subcutaneously administered to hair-clipped dorsal back skins of mice. Based on the “Testing Guidelines for Safety Evaluation of Drugs” [2009] in Notification No. 2009-116 issued by the Korea Food and Drug Administration, the changes in mortality, body weight, clinical signs, gross and histopathological findings around injection sites during 14 days were compared between the LPC-containing lipid nanoparticle formulations and equal concentrations of lysophosphatidylcholine saline suspension (LPC-API) 10 mg/ml treated group. In the present test, saline was used as negative control, and the highest dosage 200 mg/kg was set based on the maximum permissible dosage 20 ml/kg in rodents (Flecknell, 1996; KFDA Guidelines, Notification 2009-116, 2009; OECD Guidelines, #423, 2001). The dosages were set to 10 and 5 ml/kg in middle and lowest dosage groups, respectively.
Animal male ICR mice were 6-wk old upon receipt (body weight ranged in 30-32 g), and were 10-wk old after acclimatization for 28 days (body weight ranged in 36.4-49.0 g). The animals were distributed into the following groups for the test.
All data were expressed as mean±standard deviation (SD) of five mice. Multiple comparison tests for different dosage groups were conducted. Variance homogeneity was examined using the Levene test (Levene A, Clin Otalary, 1981; 6:145-51). […] Statistical analyses were conducted using SPSS (Release 14.0 K, SPSS Inc., USA; Ludbrook, Clin Exp Pharmacol Physiol, 1997; 24:294-6). A p-value <0.05 was considered statistically significant.

[2] = tested on: heparinized rat (SD rat) bloods; assay: Hemolysis in heparinized rat blood (OD 570 nm of supernatant); format: cell-based
Experimental: (§1) In order to evaluate the degree of hemolysis and erythrocyte aggregation induced by LPC-containing lipid nanoparticles (LPC-F; 18:0 LPC concentration: 10 mg/ml) prepared in example 1, 200 μl of saline, distilled water, six different concentration solutions (stock, 2, 4, 8, 16 and 32-fold diluted solutions) of LPC-F, or non-formulated lysophosphatidylcholine (LPC-API) 10 mg/ml concentrated saline solution were directly added into 1 ml of collected heparinized rat (SD rat) bloods, and then, incubated at 37° C. in shaking incubator at 100 rpm for 3 hrs. The prepared LPC-F was fold-diluted with saline to prepare six different concentrations of LPC-F. LPC-API 10 mg/ml concentrated solution was prepared through dispersion in saline, and then fold-diluted with saline to prepare six different concentrations of LPC-API Five independent experiments were repeatedly conducted. If possible, blood taken from same rats was used in each independent experiment. After the incubation in shaking incubator at 100 rpm, the formed erythrocyte aggregation was semi-quantitatively evaluated, and the OD values were calculated for the supernatant in each tube, which was prepared by centrifuging the incubated samples at 12,500 rpm for 10 minutes, and then reading the OD at 570 nm, respectively. Hemolysis was calculated by equation 1 below. The hemolytic reaction was considered positive if the hemolytic percentage was greater than 5%. Hemolytic percentage (%)=(OD sample−OD negative/(OD positive−OD negative)×100 [Equation 1]
Where negative=saline, and positive=distilled water
OD values and semiquantative erythrocyte aggregation scores were expressed by mean±standard deviation of five independent experiments. Multiple comparison tests for different dose groups were conducted. Variance homogeneity was examined using the Levene test (Levene A, Clin Otalary, 1981; 6:145-51). […] Statistical analyses were conducted using SPSS (Release 14.0 K, SPSS Inc., USA; Ludbrook, Clin Exp Pharmacol Physiol, 1997; 24:294-6). A p-value p<0.05 was considered statistically significant.

[3] = tested on: heparinized rat (SD rat) bloods; assay: Erythrocyte aggregation in heparinized rat blood (semiquantitative score); format: cell-based; details: all six different concentrations (stock to 32-fold diluted)
Experimental: as §1, with “If possible, blood taken from same rats was used in each independent experiment.” left out, “The hemolytic reaction was considered positive if the hemolytic percentage was greater than 5%. Hemolytic percentage (%)=(OD sample−OD negative/(OD positive−OD negative)×100 [Equation 1]” left out
Erythrocyte aggregation was evaluated based on semiquantative scores as follows: […]

[4] = single s.c. 5 ml/kg (LPC 50 mg/kg)
[5] = single s.c. 10 ml/kg (LPC 100 mg/kg)
[6] = single s.c. 20 ml/kg (LPC 200 mg/kg)

lysophosphatidylcholine [LPC-API] was tested, and the “Degree of ulcerative skin lesions around injection sites” value ([1]; 200, 100, 50 mg/kg treated groups, from 48 hrs after end of treatment) was “slight [1+] or moderate [2+]”, the “Histopathology: skin ulcerative lesions (% of mice)” value (from here on “Histopathology … (% of mice)”) ([1]; single s.c. 50 mg/kg) was 60% and the “Necropsy: skin ulcerative lesions around injection sites (% of mice)” value (shortened to “Necropsy … (% of mice)”) ([1]; single s.c. 50 mg/kg) was 60%. The “Histopathology … (% of mice)” value ([1]; single s.c. 100 mg/kg) was 60%, the “Necropsy … (% of mice)” value ([1]; single s.c. 100 mg/kg) was 60% and the “Histopathology … (% of mice)” value ([1]; single s.c. 200 mg/kg) was 100%. For the same substance, the “Necropsy … (% of mice)” value ([1]; single s.c. 200 mg/kg) was 100%, the “Histopathology, skins around injection sites: Normal (mice/group)” value (“Histopathology … Normal (mice/group)” below) [1, 4] was 2/5 and the “Histopathology: hUL degree 1+ Slight (mice/group)” value [1, 4] was 3/5. For the same substance, the “Histopathology: hUL degree 2+ Moderate (mice/group)” value [1, 4] was 0/5, the “Histopathology: hUL degree 3+ Severe (mice/group)” value [1, 4] was 0/5 and the “Histopathology: hUL, histopathological skin ulcerative lesions (mice/group)” value [1, 4] was 3/5. The “Necropsy, skins around injection sites: Normal (mice/group)” value (from here on “Necropsy … Normal (mice/group)”) [1, 4] was 2/5, the “Necropsy: gUL degree 1+ Slight (mice/group)” value [1, 4] was 3/5 and the “Necropsy: gUL degree 2+ Moderate (mice/group)” value [1, 4] was 0/5. The “Necropsy: gUL degree 3+ Severe (mice/group)” value [1, 4] was 0/5, the “Necropsy: gUL, gross skin ulcerative lesions (mice/group)” value [1, 4] was 3/5 and the “Clinical signs: Normal appearance (% of mice)” value (“Clinical signs … (% of mice)” for short) [1, 4] was “(40%)”. For the same substance, the “Clinical signs: Normal appearance (mice/group)” value [1, 4] was 2/5, the “Clinical signs: Skin ulcerative lesions (mice/group)” value [1, 4] was 3/5 and the “Histopathology … Normal (mice/group)” value [1, 5] was 2/5. For the same substance, the “Histopathology: hUL degree 1+ Slight (mice/group)” value [1, 5] was 3/5, the “Histopathology: hUL degree 2+ Moderate (mice/group)” value [1, 5] was 0/5 and the “Histopathology: hUL degree 3+ Severe (mice/group)” value [1, 5] was 0/5. For the same substance, the “Histopathology: hUL, histopathological skin ulcerative lesions (mice/group)” value [1, 5] was 3/5, the “Necropsy … Normal (mice/group)” value [1, 5] was 2/5 and the “Necropsy: gUL degree 1+ Slight (mice/group)” value [1, 5] was 3/5. For the same substance, the “Necropsy: gUL degree 2+ Moderate (mice/group)” value [1, 5] was 0/5, the “Necropsy: gUL degree 3+ Severe (mice/group)” value [1, 5] was 0/5 and the “Necropsy: gUL, gross skin ulcerative lesions (mice/group)” value [1, 5] was 3/5. The “Clinical signs … (% of mice)” value [1, 5] was “(40%)”, the “Clinical signs: Normal appearance (mice/group)” value [1, 5] was 2/5 and the “Clinical signs: Skin ulcerative lesions (mice/group)” value [1, 5] was 3/5. For the same substance, the “Histopathology … Normal (mice/group)” value [1, 6] was 0/5, the “Histopathology: hUL degree 1+ Slight (mice/group)” value [1, 6] was 3/5 and the “Histopathology: hUL degree 2+ Moderate (mice/group)” value [1, 6] was 1/5. For the same substance, the “Histopathology: hUL degree 3+ Severe (mice/group)” value [1, 6] was 1/5, the “Histopathology: hUL, histopathological skin ulcerative lesions (mice/group)” value [1, 6] was 5/5 and the “Necropsy … Normal (mice/group)” value [1, 6] was 0/5. For the same substance, the “Necropsy: gUL degree 1+ Slight (mice/group)” value [1, 6] was 3/5, the “Necropsy: gUL degree 2+ Moderate (mice/group)” value [1, 6] was 1/5 and the “Necropsy: gUL degree 3+ Severe (mice/group)” value [1, 6] was 1/5. The “Necropsy: gUL, gross skin ulcerative lesions (mice/group)” value [1, 6] was 5/5, the “Clinical signs … (% of mice)” value [1, 6] was “(0%)” and the “Clinical signs: Normal appearance (mice/group)” value [1, 6] was 0/5. For the same substance, the “Clinical signs: Skin ulcerative lesions (mice/group)” value [1, 6] was 5/5, the “Skin findings around injection sites (conclusion)” value ([1]; single subcutaneous treatment, compared with negative vehicle control) was “severe skin ulcerative lesions” and the “Hemolytic percentage (%)” value ([2]; 2-fold diluted solution, 200 μl in 1 ml rat blood, 37° C., 3 hrs) was 148.65±15.01%. For the same substance, the “Hemolytic percentage (%)” value ([2]; 4-fold diluted solution, 200 μl in 1 ml rat blood, 37° C., 3 hrs) was 129.70±7.23%, the “Hemolytic percentage (%)” value ([2]; 8-fold diluted solution, 200 μl in 1 ml rat blood, 37° C., 3 hrs) was 117.67±5.97% and the “Hemolytic percentage (%)” value ([2]; 16-fold diluted solution, 200 μl in 1 ml rat blood, 37° C., 3 hrs) was 78.74±3.30%. For the same substance, the “Hemolytic percentage (%)” value ([2]; 32-fold diluted solution, 200 μl in 1 ml rat blood, 37° C., 3 hrs) was 26.86±6.40%, the “Hemolytic percentage (%)” value ([2]; stock (LPC 10 mg/ml), 200 μl in 1 ml rat blood, 37° C., 3 hrs) was 157.68±10.44% and the “Hemolytic percentage (%)” value ([2]; throughout all different concentrations including the lowest 32-fold diluted solutions) was “greater than 5%”. The “Erythrocyte aggregation scores as compared with non-treated or negative saline controls” value [3] was “significant increases”.
